From patent US20150119267A1, “INHIBITION OF COLONY STIMULATING FACTOR-1 RECEPTOR SIGNALING FOR THE TREATMENT OF BRAIN CANCER” (SLOAN-KETTERING INSTITUTE FOR CANCER RESEARCH, priority 2012, published 2015)

Tested on: established PDG gliomas
Test: Short-term 7 day trial on established tumors (MRI, histology)
Format: in vivo, mouse
Details: for Apoptosis (% CC3+) / Macrophages (% CD68+) / Phagocytic Capacity / Proliferation (% BrdU+Olig2+) / Total DAPI+ Cells / Tumor Cells (% Olig2+) / Vasculature (CD31 MVD): relative to vehicle

## CNC(=O)c1cc(Oc2ccc3nc(N[C@@H]4CCCC[C@H]4O)sc3c2)ccn1 [BLZ945]
BLZ945, Day 3
  Apoptosis (% CC3+): +17-fold
  Macrophages (% CD68+): +3-fold
  Phagocytic Capacity: +11.5-fold
  Proliferation (% BrdU+Olig2+): −91%
  Total DAPI+ Cells: −72%
  Tumor Cells (% Olig2+): −27%
BLZ945, Day 7
  Apoptosis (% CC3+): +6-fold
  Macrophages (% CD68+): +2-fold
  Phagocytic Capacity: +5.0-fold
  Proliferation (% BrdU+Olig2+): −67%
  Total DAPI+ Cells: −80%
  Tumor Cells (% Olig2+): −77%
  Vasculature (CD31 MVD): −17%
BLZ945, Day 7, start 4.5-40 mm3
  Tumor Volume (Day −1 vs Day 6): +0.68%
BLZ945 Large, Day 3
  Apoptosis (% CC3+): +9-fold
  Macrophages (% CD68+): +2-fold
  Phagocytic Capacity: +7.1-fold
  Proliferation (% BrdU+Olig2+): −98%
  Total DAPI+ Cells: −40%
  Tumor Cells (% Olig2+): −14%
BLZ945 Large, Day 7
  Apoptosis (% CC3+): +2-fold
  Macrophages (% CD68+): +4-fold
  Phagocytic Capacity: +6.0-fold
  Proliferation (% BrdU+Olig2+): −94%
  Total DAPI+ Cells: −65%
  Tumor Cells (% Olig2+): −73%
  Vasculature (CD31 MVD): −67%
BLZ945 Large, Day 7, start >40 mm3
  Tumor Volume (Day −1 vs Day 6): −24.3%
BLZ945 Large, tumors >40 mm3, 7 day trial
  mice with >30% reduction in tumor volume (partial response, RECIST): 6 of 18
All groups and time points
  reduction of tumor cell proliferation: 67-98%
Already evident at d3
  treated mice exhibiting a tumor response (histology): 100%
Both treatment groups compared to vehicle
  average blood vessel length: decreased
By d7, both CSF-1R inhibitor groups
  average density of Olig2+ tumor cells, of total cells: < 20%
Compared to vehicle
  TAM numbers in tumors: did not affect TAM numbers
d3
  increase in apoptosis: 9-to 17 fold
d7
  Iba1+ macrophages that are CSF-1R+ within the tumor: no significant differences
Day 7, flow cytometry
  immune cell infiltration, comparisons between treatment groups: not significant
mouse, in vivo
  microglia in adjacent normal brain: evident microglia depletion
  pericyte coverage of the vessels: no significant differences
Starting tumor volume 4.5-40 mm3, 7 day trial
  tumor growth (MRI tumor volume): significantly halted tumor growth
Treated groups
  increase in Olig2+CC3+ cells engulfed by CD11b+ macrophages: 2 to 4 fold
  increased phagocytic capacity of macrophages: 5 to 11.5 fold
